# B1: TRAIL: TNF-related apoptosis inducing ligand, obtained from PeproTech, used at 300 ng/ml (protein, UniProt P50591 1-281, looked up)
# Tumor necrosis factor ligand …: MAMMEVQGGPSLGQTCVLIVIFTVLLQSLCVAVTYVYFTNELKQMQDKYSKSGIACFLKEDDSYWDPNDEESMNSPCWQVKWQLRQLVRKMILRTSEETISTVQEKQQNISPLVRERGPQRVAAHITGTRGRSNTLSSPNSKNEKALGRKINSWESSRSGHSFLSNLHLRNGELVIHEKGFYYIYSQTYFRFQEEIKENTKNDKQMVQYIYKYTSYPDPILLMKSARNSCWSKDAEYGLYSIYQGGIFELKENDRIFVSVTNEHLIDMDHEASFFGAFLVG
# B2: recombinant IL-12: recombinant IL-12 supplementing DC-based glioma immunotherapy (Akasaki et al.) (protein, UniProt P43431 23-215; P43432 23-335, looked up)
# Interleukin-12 subunit alpha: RVIPVSGPARCLSQSRNLLKTTDDMVKTAREKLKHYSCTAEDIDHEDITRDQTSTLKTCLPLELHKNESCLATRETSSTTRGSCLPPQKTSLMMTLCLGSIYEDLKMYQTEFQAINAALQNHNHQQIILDKGMLVAIDELMQSLNHNGETLRQKPPVGEADPYRVKMKLCILLHAFSTRVVTINRVMGYLSSA
# Interleukin-12 subunit beta: MWELEKDVYVVEVDWTPDAPGETVNLTCDTPEEDDITWTSDQRHGVIGSGKTLTITVKEFLDAGQYTCHKGGETLSHSHLLLHKKENGIWSTEILKNFKNKTFLKCEAPNYSGRFTCSWLVQRNMDLKFNIKSSSSSPDSRAVTCGMASLSAEKVTLDQRDYEKYSVSCQEDVTCPTAEETLPIELALEARQQNKYENYSTSFFIRDIIKPDPPKNLQMKPLKNSQVEVSWEYPDSWSTPHSYFSLKFFVRIQRKKEKMKETEEGCNQKGAFLVEKTSTEVQCKGGNVCVQAQDRYYNSSCSKWACVPCRVRS
# How the values were obtained:
# [1] = system: CD4+ T cells; assay: Mixed lymphocyte reaction and IFN-γ/IL-10 ELISPOT (Th cell polarization); assay type: cell-based, human
# [2] = system: CD11c+ DCs; assay: Flow cytometric analysis of DC surface and maturation markers (CD86, HLA-DR, CD83, CCR7); assay type: cell-based, human; settings: FIG. 3; for CD83 and CCR7 expression (maturation markers) / CD86 expression, geometric mean: single-cultured iDCs; for CD83 and CCR7 expression (maturation markers): 16 hours co-stimulation, TNF-α 20 ng/ml; for CD86 expression, geometric mean: 16 hours, TRAIL 300 ng/ml and/or PGE2 0.1 μM, untreated iDCs: 647
# Experimental: Human PBMCs were separated from peripheral blood of a healthy donor and the aforementioned glioblastoma patient using Ficoll-Hypaque density centrifugation. PBMC were resuspended in X-Vivo 15 serum-free medium (obtained from Cambrex; Santa Rosa, Calif.) and allowed to adhere to 24-well culture plate at 37° C. The non-adherent cells were removed after 2 hours. CD4+ and CD8+ cells were isolated from these non-adherent cells with MiniMACS cell separation unit (obtained from Milenyi Biotec, Auburn, Calif.) and microbeads conjugated mouse monoclonal anti-human CD4 and CD8 antibody (obtained from Milenyi Biotec). CD4+ and CD8+ cells were used for mixed lymphocyte reaction (MLR) described later. The adherent cells were subsequently cultured in X-Vivo 15 serum-free medium. 20 ng/ml GM-CSF (obtained from BioSource International) and 10 ng/ml IL-4 (obtained from BioSource International) were added to the cultures on days 0, 2, and 4. After 7-day culture, the floating cells were transferred to fresh plates with fresh X-Vivo 15 medium as immature DCs (iDCs). Several iDCs were cultured with 300 ng/ml TRAIL and/or 0.1 μM PGE2 (obtained from Sigma) and/or 20 ng/ml TNF-α for 16 hours (TRAIL-DCs, PGE2-DCs, TRAIL/PGE2-DCs, TRAIL/TNF-α-DCs, TRAIL/TNF-α/PGE2-DCs).
# (§1) Glioma cells were plated to 6-well culture plate at density of 1×10^6 cells/well/2 ml with fresh X-Vivo 15 medium. Several glioma cells were pre-treated with the COX-2 inhibitor NS-398 for 8 hours. The NS-398 treated glioma cells were cultured with TNF-α, TRAIL, and NS-398. The other cells were cultured with TNF-α and TRAIL. After 24 hours culture with these agents, iDCs were put into the wells at the density of 3×10^5 cells/well, and were co-cultured with glioma cells for 16 hours. Several iDCs were cultured with TNF-α/TRAIL or TNF-α/TRAIL/NS-398 without tumor cells. Human glioma cell lines (U-87MG and LN-18) and stable transfectants (LN-18-COX-2 and LN-18-EP) were co-cultured with healthy donor iDCs, and MG-377 were co-cultured with autologous iDCs.
# Monoclonal mouse anti-human antibodies of PE-conjugated CD83, CD86, HLA-DR (obtained from Phamingen), FITC-conjugated CD11c (obtained from BioSource International), and unconjugated CCR7 (R&D Systems; Minneapolis, Minn.) were used for cell surface analysis of DCs. PE-conjugated F(ab′)2 goat anti-mouse immunoglobulins (obtained from DAKO Cytomation; Carpinteria, Calif.) was used for secondary antibody. Mouse IgG1 and IgG2a (obtained from Phamingen) were used for isotype control. DCs were stained with anti-CD86, HLA-DR, CD83, and CCR7 antibodies before staining with anti-CD11c antibody, and CD11c+DCs were isolated with MiniMACS cell separation unit and microbeads-conjugated anti-FITC antibody (obtained from Milenyi Biotec).
# DCs were stained with anti-CD86, HLA-DR, CD83, CCR7, and CD11c antibody. CD11c+ DCs were isolated with cell separation unit and microbease-conjugated anti-FITC antibody.
# [3] = system: glioma cells (U-87MG, LN-18, MG-377); iDCs; assay type: cell-based; settings: NS-398 treatment; data not shown
# [4] = system: PGE2 in the supernatants of glioma cell cultures; assay: PGE2 ELISA in supernatants of glioma cell cultures; assay type: cell-based, human; settings: for PGE2 in the culture supernatants (ELISA): FIG. 1B
# Experimental: Tumor cells, including U-87MG human glioma cell line (obtained from American Type Culture Collection; Rockville, Md.), LN-18 cell line (obtained from Dr. Erwin Van Meier, Emory University; Atlanta, Ga.), and primary cultured human glioma MG-377 (obtained from surgical specimen of a glioblastoma patient at neurosurgical institute, Cedars-Sinai Medical Center; Los Angeles, Calif.), were maintained at 37° C. and 5% CO2 in Dulbecco's Modified Eagles Medium (available from Sigma; St. Louis, Mo.; hereinafter “DMEM”) supplemented with 10% heat-inactivated fetal bovine serum (available from Sigma; hereinafter “[…]”), 2 mM […], 10 mM HEPES (available from Sigma), 100 U/ml penicillin (available from Sigma), 100 μg/ml streptomycin (available from Sigma). 100% di-methyl sulfonyl oxygen (available from Sigma; hereinafter “DMSO”) dissolved NS-398 (selective COX-2 inhibitor; obtained from Cayman Chemical) was used at concentrations of 10 μM. Recombinant human TNF-α (obtained from BioSource International; Camarillo, Calif.) was used at a concentration of 20 ng/ml and TRAIL (obtained from PeproTech Inc.; Rocky Hill, N.J.) was used at a concentration of 300 ng/ml.
# as §1, with “iDCs. […]” for “iDCs.”
# PGE2 in the culture supernatants was measured by ELISA (FIG. 1B).
# [5] = system: COX-2 protein in human glioma cells (U-87MG, LN-18, MG-377); assay: Western blot of COX-2 protein expression in human glioma cells; assay type: cell-based; settings: glioma cells treated with TRAIL and TNF-α plus COX-2 inhibitor (NS-398 10 μM); FIG. 1A
# Experimental: Samples were extracted with buffer containing 1% Triton X-100, 150 mM NaCl, 50 mM Tris (hydroxymethyl aminomethane) (pH 7.5) and 1 mM phenylmethylsulfonyl fluoride (PMSF). The cell debris was removed by centrifugation at 14,000 g for 20 minutes and the supernatant was subjected to SDS polyacrylamide gel electrophoresis (SDS-PAGE) and loaded on a 7.5% polyacrylamide gel (obtained from Bio-Rad; Hercules, Calif.). Electrophoretic transfer to nitrocellulose membranes (obtained from Amersham Biosciences; Piscataway, N.J.) was followed by immunoblotting with a mouse IgG1 anti-COX-2 antibody (obtained from Phamingen) or a mouse IgG1 anti-beta-tublin (obtained from Sigma). This was followed by hybridization with a peroxidase-linked anti-mouse IgG antibody (obtained from Amersham Bioscience). The signal was detected by chemiluminescence using ECL detection system (obtained from Amersham Bioscience) and Hyperfilm ECL (obtained from Amersham Bioscience).
# Expression of COX-2 protein in human glioma cells was examined by Western blot (FIG. 1A).
# [6] = system: isolated CD11c+ DCs; assay: IL-10 and IL-12p70 ELISA in supernatants of DC cultures; assay type: cell-based, human; settings: FIG. 4
# Experimental: as §1
# PGE2 ELISA kit (obtained from Cyman Chemical; Ann Arbor, Mich.) was used according to the manufacture's protocol for measurement in the supernatants of glioma cell cultures. IL-10 and IL-12 p70 ELISA kits (obtained from Phamingen) were used according to the manufacture's protocols for measurement in the supernatants of cultures of tumor cells or isolated CD11c+ DCs. CD40-CD40L interaction is a main trigger of IL-12 production by DCs (Cella, M. et al., “Ligation of CD40 on dendritic cells triggers production of high levels of interleukin-12 and enhances T cell stimulatory capacity: T-T help via APC activation,” J. Exp. Med., Vol. 184, pp. 747-752 (1996)). Based on this evidence, cells were co-cultured with NIH-CD40L cells (obtained from Dr. Gang Zeng, National Cancer Institute, N11, MD; the ratio of NIH-CD40L:DCs=1:1) for 16 hours, and the supernatants of co-cultures were used as the samples. The lower detection limit of each kit was 7.8 pg/ml. All samples and standards were run in duplicate.
# IL-10 and IL-12p70 in the supernatants of cultures were measured by ELISA, and the results were statistically compared with NS-398(−) single-cultured DCs (FIG. 4).
# [7] = system: COX-2 overexpressing glioma cells; settings: supplementing with recombinant IL-12, in the absence of COX-2 inhibitor; cited from earlier work
# [8] = DCs co-cultured with NS-398 treated glioma
# [9] = single-cultured DCs, compared with NS-398(−) single-cultured DCs
molecule,measurement,setting,value
"CCCCC[C@H](O)/C=C/[C@H]1[C@H](O)CC(=O)[C@@H]1C/C=C\CCCC(=O)O [PGE2, ProstaglandinE2]",Th cell polarization by tumor-infiltrating DCs,[1]; soluble PGE2 added into culture supernatant of LN-18-EP,same effect on Th2 polarization as LN-18-COX-2
same,CD83 and CCR7 expression (maturation markers),[2],did not induce CD83 or CCR7 expression
same,"CD86 expression, geometric mean",[2],2779
TNF-α,CD83 and CCR7 expression (maturation markers),[2],induced both CD83 and CCR7 expressions
CS(=O)(=O)Nc1ccc([N+](=O)[O-])cc1OC1CCCCC1 [NS-398],DC-mediated Th cell polarization,"[1]; DCs co-cultured with COX-2-inhibited glioma cells, FIG. 5A-F",bias toward Th1
same,Th cell polarization by tumor-infiltrating DCs,[1]; LN-18-COX-2 stable transfectant with COX-2 inhibitor,polarizing the Th cells toward Th1
same,IL-10 expression (ELISPOT),"[1]; co-culture of primary glioma (MG-377) with autologous DCs, FIG. 5E",decrease in IL-10
same,interferon-gamma expression (ELISPOT),"[1]; co-culture of primary glioma (MG-377) with autologous DCs, FIG. 5F",decrease in interferon-gamma
same,IL-10 expression (ELISPOT),"[1]; co-cultured DCs and glioma, FIG. 5A, 5B",decrease in IL-10 expression
same,interferon-gamma expression (ELISPOT),"[1]; co-cultured DCs and glioma, FIG. 5C, 5D",increase in interferon-gamma expression
same,death ratio in each glioma,[3],did not cause a change of the death ratio
same,"geometric means of the expressing markers (CD86, HLA-DR, CD83, CCR7)","[2]; DCs co-cultured with glioma cells, with or without NS-398 treatment",no statistical difference
same,PGE2 in the culture supernatants (ELISA),"[4]; LN-18, each group",no significant difference
same,PGE2 produced by the COX-2 transfectant,[4]; LN-18-COX-2 stable transfectant,suppressed the PGE2
same,PGE2 in the culture supernatants (ELISA),"[4]; U-87MG and MG-377, addition of NS-398 10 μM to TRAIL/TNF-α cultures, p<0.01",significantly reduced
same,COX-2 expression (Western blot),[5],did not extinguish the COX-2 expression
same,IL-10 (ELISA),[6]; [8],downregulation of IL-10
same,IL-12 (ELISA),[6]; [8],augmentation of IL-12
same,IL-10 production (ELISA),[6]; [9],did not effect to change
same,IL-12p70 production (ELISA),[6]; [9],did not effect to change
B1,CD83 and CCR7 expression (maturation markers),[2],did not induce CD83 or CCR7 expression
same,"CD86 expression, geometric mean",[2],1086
B2,therapeutic effect of DC-based glioma immunotherapy,[7],potent therapeutic effect

# Source: US20080199484A1, “Use Of Cox-2 Inhibitor to Prevent T-Cell Anergy Induced By Dendritic Cell Therapy” (CEDARS-SINAI MEDICAL CENTER, priority 2003, published 2008)
